Measurements taken from patent publication US20250288589A1, “PYRIDOPYRIMIDINES AND METHODS OF THEIR USE” (Kineta, Inc., priority 2021, published 2025).
Counter-ions that a name gives are not always drawn.

These molecules were tested against T1, full-length human PIKFYVE (Homo sapiens, UniProt Q9Y2I7, L932S/Q1183K/Q995L/S1033A/S696N/T998S) (assay: PIKfyve biochemical assay (ADP-Glo Kinase assay, Carna Biosciences)). Details: GST-PIKFYVE, 10 μM to 3 nM in duplicate, read-out: hPIKfyve IC50.
T1 construct: A full-length human PIKFYVE [1-2098(end) amino acids and S696N, L932S, Q995L, T998S, S1033A and Q1183K; purchased Carna Biosciences; host or cells: baculovirus expression system
T1 sequence (Q9Y2I7 whole entry S696N/L932S/Q995L/T998S/S1033A/Q1183K): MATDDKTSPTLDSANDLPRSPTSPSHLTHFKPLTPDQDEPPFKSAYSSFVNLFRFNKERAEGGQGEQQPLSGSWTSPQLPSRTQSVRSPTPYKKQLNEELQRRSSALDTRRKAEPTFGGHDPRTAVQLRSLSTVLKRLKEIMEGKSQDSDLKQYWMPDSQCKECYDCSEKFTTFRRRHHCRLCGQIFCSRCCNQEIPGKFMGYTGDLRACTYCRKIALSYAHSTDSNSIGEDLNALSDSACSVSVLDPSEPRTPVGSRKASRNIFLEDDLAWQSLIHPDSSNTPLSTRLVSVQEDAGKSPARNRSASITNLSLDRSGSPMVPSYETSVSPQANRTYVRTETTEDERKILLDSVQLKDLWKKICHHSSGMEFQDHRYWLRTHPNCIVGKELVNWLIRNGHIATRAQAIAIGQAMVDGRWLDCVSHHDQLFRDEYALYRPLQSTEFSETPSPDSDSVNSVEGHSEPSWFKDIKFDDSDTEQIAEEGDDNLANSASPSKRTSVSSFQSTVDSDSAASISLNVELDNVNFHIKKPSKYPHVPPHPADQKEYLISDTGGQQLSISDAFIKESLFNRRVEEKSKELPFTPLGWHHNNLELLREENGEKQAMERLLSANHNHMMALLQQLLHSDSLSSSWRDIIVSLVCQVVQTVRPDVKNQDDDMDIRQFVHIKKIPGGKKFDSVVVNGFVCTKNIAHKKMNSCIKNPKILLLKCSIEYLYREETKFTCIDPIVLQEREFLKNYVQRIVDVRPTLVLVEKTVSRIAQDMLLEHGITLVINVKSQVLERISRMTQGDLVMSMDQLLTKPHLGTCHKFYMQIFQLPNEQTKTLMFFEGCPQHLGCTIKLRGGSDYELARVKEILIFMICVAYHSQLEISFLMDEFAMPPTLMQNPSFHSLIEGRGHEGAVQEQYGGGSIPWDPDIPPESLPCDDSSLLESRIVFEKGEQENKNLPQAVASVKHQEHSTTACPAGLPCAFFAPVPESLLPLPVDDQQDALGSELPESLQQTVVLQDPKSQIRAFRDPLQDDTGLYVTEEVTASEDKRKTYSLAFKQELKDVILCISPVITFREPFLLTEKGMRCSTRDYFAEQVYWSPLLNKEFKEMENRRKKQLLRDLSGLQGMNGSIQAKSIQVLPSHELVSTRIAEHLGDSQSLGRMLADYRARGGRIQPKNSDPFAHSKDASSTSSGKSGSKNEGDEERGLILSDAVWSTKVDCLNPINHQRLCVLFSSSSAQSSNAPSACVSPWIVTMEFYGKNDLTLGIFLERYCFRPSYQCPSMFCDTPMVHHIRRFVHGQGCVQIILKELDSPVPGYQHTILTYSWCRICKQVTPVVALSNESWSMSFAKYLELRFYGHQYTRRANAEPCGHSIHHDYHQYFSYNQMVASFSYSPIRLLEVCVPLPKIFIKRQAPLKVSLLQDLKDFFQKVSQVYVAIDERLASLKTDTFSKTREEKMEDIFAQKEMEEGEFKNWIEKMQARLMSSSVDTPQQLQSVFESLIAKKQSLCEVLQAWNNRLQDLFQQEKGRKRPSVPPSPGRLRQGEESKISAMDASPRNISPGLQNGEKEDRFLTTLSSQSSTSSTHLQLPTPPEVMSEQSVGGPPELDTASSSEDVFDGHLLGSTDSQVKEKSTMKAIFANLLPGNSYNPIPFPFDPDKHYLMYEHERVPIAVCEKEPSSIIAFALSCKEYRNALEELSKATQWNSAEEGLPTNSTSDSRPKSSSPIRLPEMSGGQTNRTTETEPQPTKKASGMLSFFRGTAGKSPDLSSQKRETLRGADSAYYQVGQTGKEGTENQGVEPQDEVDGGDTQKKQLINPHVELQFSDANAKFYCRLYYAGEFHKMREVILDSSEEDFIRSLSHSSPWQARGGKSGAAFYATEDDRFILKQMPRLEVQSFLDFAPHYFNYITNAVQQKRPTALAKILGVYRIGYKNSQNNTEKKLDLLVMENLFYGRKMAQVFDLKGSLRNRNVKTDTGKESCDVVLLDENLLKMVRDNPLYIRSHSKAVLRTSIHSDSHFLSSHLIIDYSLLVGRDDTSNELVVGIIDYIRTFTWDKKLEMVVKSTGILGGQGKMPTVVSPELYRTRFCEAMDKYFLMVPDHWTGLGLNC
Source text: (§1) PIKfyve Biochemical Assay. The biochemical PIKFyve inhibition assays were run by Carna Biosciences according to proprietary methodology based on the Promega ADP-Glo™ Kinase assay. A full-length human PIKFYVE [1-2098(end) amino acids and S696N, L932S, Q995L, T998S, S1033A and Q1183K of the protein having the sequence set forth in NCBI Reference Sequence No. NP_055855.2] was expressed as N-terminal GST-fusion protein (265 kDa) using baculovirus expression system. GST-PIKFYVE was purified by using glutathione sepharose chromatography and used in an ADP-Glo™ Kinase assay (Promega). Reactions were set up by adding the test compound solution, substrate solution, ATP solution and kinase solution, each at 4× final concentrations. Reactions were prepared with assay buffer (50 mM MOPS, 1 mM DTT, pH7.2), mixed, and incubated in black 384 well polystyrene plates for 1 hour at room temperature. ADP-Glo™ reagent was then added for 40 minutes, followed by kinase detection reagent for an additional 40 minutes. The kinase activity was evaluated by detecting relative light units on a luminescence plate reader. Samples were run in duplicate from 10 μM to 3 nM. […] IC50 values were calculated from concentration vs % inhibition curves by fitting to a four-parameter logistic curve.
as §1, with “The” for “PIKfyve Biochemical Assay. The”, “accession number” for “the protein having the sequence set forth in NCBI Reference Sequence No.”, “uM” for “μM”

Row | SMILES | IC50
1 | c1cncc(-c2ccn(-c3nc(N4CCOCC4)c4ncc(-c5ccc6c(c5)OCCO6)cc4n3)n2)c1 [Compound 49, 4-(7-(2,3-dihydrobenzo[b][1,4]dioxin-6-yl)-2-(3-(pyridin-3-yl)-1H-pyrazol-1-yl)pyrido[3,2-d]pyrimidin-4-yl)morpholine] | 1 to 10 µM
2 | c1ncc(-c2ccn(-c3nc(N4CCOCC4)c4ncc(C5CCOCC5)cc4n3)n2)cn1 [Compound 50, 4-[2-(3-pyrimidin-5-ylpyrazol-1-yl)-7-tetrahydropyran-4-yl-pyrido[3,2-d]pyrimidin-4-yl]morpholine] | > 10 µM
3 | c1cc(-c2ccn(-c3nc(N4CCOCC4)c4ncc(C5CCOCC5)cc4n3)n2)ccn1 [Compound 51, 4-[2-[3-(4-pyridyl)pyrazol-1-yl]-7-tetrahydropyran-4-yl-pyrido[3,2-d]pyrimidin-4-yl]morpholine] | 1 to 10 µM
4 | c1cncc(-c2ccn(-c3nc(N4CCOCC4)c4ncc(C5CCOCC5)cc4n3)n2)c1 [Compound 52, 4-[2-[3-(3-pyridyl)pyrazol-1-yl]-7-tetrahydropyran-4-yl-pyrido[3,2-d]pyrimidin-4-yl]morpholine] | 1 to 10 µM
5 | c1cc(-c2ccn(-c3nc(N4CCOCC4)c4ncc(C5CCOCC5)cc4n3)n2)ncn1 [Compound 53, 4-[2-(3-pyrimidin-4-ylpyrazol-1-yl)-7-tetrahydropyran-4-yl-pyrido[3,2-d]pyrimidin-4-yl]morpholine] | > 10 µM
6 | COc1cnc2c(N3CCOCC3)nc(-n3ccc(-c4cccc(C)c4)n3)nc2c1 [Compound 54, 4-(7-methoxy-2-(3-m-tolyl-1H-pyrazol-1-yl)pyrido[3,2-d]pyrimidin-4-yl)morpholine] | < 0.01 µM
7 | c1ccc(-c2ccn(-c3nc(N4CCOCC4)c4ncc(C5CC5)cc4n3)n2)cc1 [Compound 55, 4-[7-cyclopropyl-2-(3-phenylpyrazol-1-yl)pyrido[3,2-d]pyrimidin-4-yl]morpholine] | 0.01 to 0.1 µM
8 | CN1CCN(c2cnc3c(N4CCOCC4)nc(-n4cc(-c5ccccc5)cn4)nc3c2)C(=O)C1 [Compound 56, 4-methyl-1-(4-morpholino-2-(4-phenyl-1H-pyrazol-1-yl)pyrido[3,2-d]pyrimidin-7-yl)piperazin-2-one] | 0.01 to 0.1 µM
9 | CC(C)(C)OC(=O)N1CCC(Cc2ccn(-c3nc(N4CCOCC4)c4ncccc4n3)n2)C1 (stereo not drawn) [Compound 63, tert-butyl 3-[[1-(4-morpholinopyrido[3,2-d]pyrimidin-2-yl)pyrazol-3-yl]methyl]pyrrolidine-1-carboxylate] | 1 to 10 µM
10 | c1cnc2c(N3CCOCC3)nc(-n3ccc(CC4CCNC4)n3)nc2c1 (stereo not drawn) [Compound 64, 4-[2-[3-(pyrrolidin-3-ylmethyl)pyrazol-1-yl]pyrido[3,2-d]pyrimidin-4-yl]morpholine] | 1 to 10 µM
11 | COc1cncc(-c2cnc3c(N4CCOCC4)nc(-c4ccn(CC(F)(F)F)n4)nc3c2)c1 [Compound 65, 4-(7-(5-methoxypyridin-3-yl)-2-(1-(2,2,2-trifluoroethyl)-1H-pyrazol-3-yl)pyrido[3,2-d]pyrimidin-4-yl)morpholine] | 1 to 10 µM
12 | FC(F)(F)Cn1ccc(-c2nc(N3CCOCC3)c3ncccc3n2)n1 [Compound 68, 4-(2-(1-(2,2,2-trifluoroethyl)-1H-pyrazol-3-yl)pyrido[3,2-d]pyrimidin-4-yl)morpholine] | 1 to 10 µM
13 | c1cnc2c(N3CCOCC3)nc(-c3n[nH]c4ccccc34)nc2c1 [Compound 69, 4-[2-(1H-indazol-3-yl)pyrido[3,2-d]pyrimidin-4-yl]morpholine] | 1 to 10 µM
14 | Cc1cccc(-c2cc(O)n(-c3nc(N4CCOCC4)c4ncc(-c5ccoc5)cc4n3)n2)c1 [Compound 70, 1-(7-(furan-3-yl)-4-morpholinopyrido[3,2-d]pyrimidin-2-yl)-3-m-tolyl-1H-pyrazol-5-ol] | < 0.01 µM
15 | c1ccc(-c2cn(-c3nc(N4CCOCC4)c4ncccc4n3)nn2)cc1 [Compound 74, 4-(2-(4-phenyl-1H-1,2,3-triazol-1-yl)pyrido[3,2-d]pyrimidin-4-yl)morpholine] | 0.1 to 1 µM
16 | c1ccc(-c2cnn(-c3nc(N4CCOCC4)c4ncccc4n3)n2)cc1 [Compound 75, 4-(2-(4-phenyl-2H-1,2,3-triazol-2-yl)pyrido[3,2-d]pyrimidin-4-yl)morpholine hydrochloride] | 0.01 to 0.1 µM

Continued, values first:

Row | IC50 | SMILES
17 | 0.1 to 1 µM | Cc1ccc2c(c1)nnn2-c1nc(N2CCOCC2)c2ncccc2n1 [Compound 76, 4-(2-(5-methyl-1H-benzo[d][1,2,3]triazol-1-yl)pyrido[3,2-d]pyrimidin-4-yl)morpholine]
18 | > 10 µM | O=C1N(c2nc(N3CCOCC3)c3ncccc3n2)CCN1C1CCCC1 [Compound 78, 1-cyclopentyl-3-(4-morpholinopyrido[3,2-d]pyrimidin-2-yl)imidazolidin-2-one]
19 | 0.1 to 1 µM | O=c1[nH]c(-c2ccccc2)nn1-c1nc(N2CCOCC2)c2ncccc2n1 [Compound 82, 2-(4-morpholinopyrido[3,2-d]pyrimidin-2-yl)-5-phenyl-4H-1,2,4-triazol-3-one]
20 | > 10 µM | c1cnc2c(N3CCOCC3)nc(-c3ccnc(C4CCNCC4)n3)nc2c1 [Compound 84, 4-[2-[2-(4-piperidyl)pyrimidin-4-yl]pyrido[3,2-d]pyrimidin-4-yl]morpholine]
21 | > 10 µM | CN1CCC(c2nccc(-c3nc(N4CCOCC4)c4ncccc4n3)n2)CC1 [Compound 85, 4-[2-[2-(1-methyl-4-piperidyl)pyrimidin-4-yl]pyrido[3,2-d]pyrimidin-4-yl]morpholine]
22 | 0.01 to 0.1 µM | c1ccc(-c2nccc(-c3nc(N4CCOCC4)c4ncccc4n3)n2)cc1 [Compound 90, 4-(2-(2-phenylpyrimidin-4-yl)pyrido[3,2-d]pyrimidin-4-yl)morpholine]
23 | 1 to 10 µM | c1cc(-c2nc(N3CCOCC3)c3ncccc3n2)nc(C2CCNCC2)c1 [Compound 92, 4-[2-[6-(4-piperidyl)-2-pyridyl]pyrido[3,2-d]pyrimidin-4-yl]morpholine]
24 | 0.1 to 1 µM | COc1cnc(-c2ccccc2)nc1-c1nc(N2CCOCC2)c2ncccc2n1 [Compound 93, 4-(2-(5-methoxy-2-phenylpyrimidin-4-yl)pyrido[3,2-d]pyrimidin-4-yl)morpholine]
25 | 0.01 to 0.1 µM | Oc1cnc(-c2ccccc2)nc1-c1nc(N2CCOCC2)c2ncccc2n1 [Compound 94, 4-(4-morpholinopyrido[3,2-d]pyrimidin-2-yl)-2-phenylpyrimidin-5-ol]
26 | 0.01 to 0.1 µM | c1ccc(-c2nccc(-c3nc(N4CCOCC4)c4ncc(N5CCOCC5)cc4n3)n2)cc1 [Compound 95, 4,4′-(2-(2-phenylpyrimidin-4-yl)pyrido[3,2-d]pyrimidine-4,7-diyl)dimorpholine]
27 | 1 to 10 µM | Cc1cnc(-c2ccccc2)nc1-c1nc(N2CCOCC2)c2ncccc2n1 [Compound 96, 4-(2-(5-methyl-2-phenylpyrimidin-4-yl)pyrido[3,2-d]pyrimidin-4-yl)morpholine]
28 | 0.1 to 1 µM | c1ccc(-c2cncc(-c3nc(N4CCOCC4)c4ncccc4n3)n2)cc1 [Compound 97, 4-(2-(6-phenylpyrazin-2-yl)pyrido[3,2-d]pyrimidin-4-yl)morpholine]
29 | 1 to 10 µM | c1cnc2c(N3CCOCC3)nc(-c3ccnc(-c4ccoc4)n3)nc2c1 [Compound 98, 4-(2-(2-(furan-3-yl)pyrimidin-4-yl)pyrido[3,2-d]pyrimidin-4-yl)morpholine]
30 | 1 to 10 µM | c1coc(-c2nccc(-c3nc(N4CCOCC4)c4ncccc4n3)n2)c1 [Compound 99, 4-(2-(2-(furan-2-yl)pyrimidin-4-yl)pyrido[3,2-d]pyrimidin-4-yl)morpholine]
